Measured values published in patent US11272709B2, “Amidine substituted benzoyl derivatives useful as herbicides” (Syngenta Participations AG, priority 2018, dated 2022).

Key:
Type in all cases: in vivo
Details in all cases: evaluated after 13 days
[1] = system: Amaranthus retoflexus (AMARE); experiment: Pre-emergence herbicidal glasshouse test, Amaranthus retoflexus (AMARE)
Protocol: (§1) Seeds of a variety of test species are sown in standard soil in pots (Lolium perenne (LOLPE), Amaranthus retoflexus (AMARE), Abutilon theophrasti (ABUTH), Setaria faberi (SETFA), Echinochloa crus-galli (ECHCG), Ipomoea hederacea (IPOHE)). After cultivation for one day (pre-emergence) or after 8 days cultivation (post-emergence) under controlled conditions in a glasshouse (at 24/16° C., day/night; 14 hours light; 65% humidity), the plants are sprayed with an aqueous spray solution derived from the formulation of the technical active ingredient in acetone/water (50:50) solution containing 0.5% Tween 20 (polyoxyethelyene sorbitan monolaurate, CAS RN 9005-64-5). Compounds are applied at 500 g/h unless otherwise indicated. The test plants are then grown in a glasshouse under controlled conditions in a glasshouse (at 24/16° C., day/night; 14 hours light; 65% humidity) and watered twice daily. After 13 days for pre and post-emergence, the test is evaluated for the percentage damage caused to the plant. The biological activities are shown in the following table on a five point scale (5=80-100%; 4=60-79%; 3=40-59%; 2=20-39%; 1=0-19%).

[2] = system: Ipomoea hederacea (IPOHE); experiment: Pre-emergence herbicidal glasshouse test, Ipomoea hederacea (IPOHE)
Protocol: as §1

[3] = system: Amaranthus retoflexus (AMARE); experiment: Post-emergence herbicidal glasshouse test, Amaranthus retoflexus (AMARE)
Protocol: as §1

[4] = system: Setaria faberi (SETFA); experiment: Pre-emergence herbicidal glasshouse test, Setaria faberi (SETFA)
Protocol: as §1

[5] = system: Echinochloa crus-galli (ECHCG); experiment: Pre-emergence herbicidal glasshouse test, Echinochloa crus-galli (ECHCG)
Protocol: as §1

[6] = system: Setaria faberi (SETFA); experiment: Post-emergence herbicidal glasshouse test, Setaria faberi (SETFA)
Protocol: as §1

[7] = system: Abutilon theophrasti (ABUTH); experiment: Pre-emergence herbicidal glasshouse test, Abutilon theophrasti (ABUTH)
Protocol: as §1

[8] = system: Abutilon theophrasti (ABUTH); experiment: Post-emergence herbicidal glasshouse test, Abutilon theophrasti (ABUTH)
Protocol: as §1

[9] = system: Ipomoea hederacea (IPOHE); experiment: Post-emergence herbicidal glasshouse test, Ipomoea hederacea (IPOHE)
Protocol: as §1

[10] = system: Echinochloa crus-galli (ECHCG); experiment: Post-emergence herbicidal glasshouse test, Echinochloa crus-galli (ECHCG)
Protocol: as §1

Compound	PRE Application AMARE, percentage damage (five point scale) ([1]; 500 g/h)	PRE Application IPOHE, percentage damage (five point scale) ([2]; 500 g/h)	POST Application AMARE, percentage damage (five point scale) ([3]; 500 g/h)	PRE Application SETFA, percentage damage (five point scale) ([4]; 500 g/h)	PRE Application ECHCG, percentage damage (five point scale) ([5]; 500 g/h)	POST Application SETFA, percentage damage (five point scale) ([6]; 500 g/h)	PRE Application ABUTH, percentage damage (five point scale) ([7]; 500 g/h)	POST Application ABUTH, percentage damage (five point scale) ([8]; 500 g/h)	POST Application IPOHE, percentage damage (five point scale) ([9]; 500 g/h)	POST Application ECHCG, percentage damage (five point scale) ([10]; 500 g/h)	PRE Application AMARE, percentage damage (five point scale) ([1]; applied at 250 g/ha)	PRE Application IPOHE, percentage damage (five point scale) ([2]; applied at 250 g/ha)	POST Application AMARE, percentage damage (five point scale) ([3]; applied at 250 g/ha)	PRE Application SETFA, percentage damage (five point scale) ([4]; applied at 250 g/ha)	PRE Application ECHCG, percentage damage (five point scale) ([5]; applied at 250 g/ha)	POST Application SETFA, percentage damage (five point scale) ([6]; applied at 250 g/ha)	PRE Application ABUTH, percentage damage (five point scale) ([7]; applied at 250 g/ha)	POST Application ABUTH, percentage damage (five point scale) ([8]; applied at 250 g/ha)	POST Application IPOHE, percentage damage (five point scale) ([9]; applied at 250 g/ha)	POST Application ECHCG, percentage damage (five point scale) ([10]; applied at 250 g/ha)
CN(C)C(=Nc1c(C(F)(F)F)ccc(C(=O)Nc2nnnn2C)c1Cl)C(F)(F)F [Compound 1.139]	5 (5=80-100%)	5 (5=80-100%)	5 (5=80-100%)	5 (5=80-100%)	5 (5=80-100%)	5 (5=80-100%)	5 (5=80-100%)	5 (5=80-100%)	4 (4=60-79%)	5 (5=80-100%)	–	–	–	–	–	–	–	–	–	–
CC(C)N(C)C=Nc1c(C(F)(F)F)ccc(C(=O)Nc2nnnn2C)c1Cl [Compound 1.140]	5 (5=80-100%)	5 (5=80-100%)	5 (5=80-100%)	5 (5=80-100%)	5 (5=80-100%)	5 (5=80-100%)	5 (5=80-100%)	5 (5=80-100%)	5 (5=80-100%)	5 (5=80-100%)	–	–	–	–	–	–	–	–	–	–
CN(C=Nc1c(S(C)(=O)=O)ccc(C(=O)Nc2nnnn2C)c1Cl)CC(F)(F)F [Compound 1.142]	–	–	–	–	–	–	–	–	–	–	5 (5=80-100%)	4 (4=60-79%)	5 (5=80-100%)	5 (5=80-100%)	5 (5=80-100%)	5 (5=80-100%)	5 (5=80-100%)	5 (5=80-100%)	5 (5=80-100%)	5 (5=80-100%)
Cc1c(C(=O)Nc2nnnn2C)ccc(S(C)(=O)=O)c1N=CN(C)C(C)C [Compound 1.144]	5 (5=80-100%)	5 (5=80-100%)	5 (5=80-100%)	5 (5=80-100%)	5 (5=80-100%)	5 (5=80-100%)	5 (5=80-100%)	5 (5=80-100%)	5 (5=80-100%)	5 (5=80-100%)	–	–	–	–	–	–	–	–	–	–
CN(C=Nc1c(S(C)(=O)=O)ccc(C(=O)Nc2nnnn2C)c1Cl)c1ccccc1 [Compound 1.145]	5 (5=80-100%)	4 (4=60-79%)	4 (4=60-79%)	5 (5=80-100%)	5 (5=80-100%)	5 (5=80-100%)	5 (5=80-100%)	3 (3=40-59%)	4 (4=60-79%)	5 (5=80-100%)	–	–	–	–	–	–	–	–	–	–
CC(=Nc1c(C(F)(F)F)ccc(C(=O)Nc2nnnn2C)c1Cl)N(C)C [Compound 1.148]	5 (5=80-100%)	5 (5=80-100%)	5 (5=80-100%)	5 (5=80-100%)	5 (5=80-100%)	5 (5=80-100%)	5 (5=80-100%)	4 (4=60-79%)	4 (4=60-79%)	5 (5=80-100%)	–	–	–	–	–	–	–	–	–	–
Cc1nnc(NC(=O)c2ccc(C(F)(F)F)c(N=CN(C)C)c2C)o1 [Compound 2.017]	5 (5=80-100%)	5 (5=80-100%)	5 (5=80-100%)	4 (4=60-79%)	5 (5=80-100%)	5 (5=80-100%)	5 (5=80-100%)	4 (4=60-79%)	4 (4=60-79%)	5 (5=80-100%)	–	–	–	–	–	–	–	–	–	–
Cc1nnc(NC(=O)c2ccc(S(C)(=O)=O)c(N=CN(C)C)c2C)o1 [Compound 2.025]	5 (5=80-100%)	3 (3=40-59%)	5 (5=80-100%)	5 (5=80-100%)	5 (5=80-100%)	5 (5=80-100%)	5 (5=80-100%)	5 (5=80-100%)	5 (5=80-100%)	5 (5=80-100%)	–	–	–	–	–	–	–	–	–	–
CCN(C)C=Nc1c(S(C)(=O)=O)ccc(C(=O)Nc2nnc(C)o2)c1C [Compound 2.027]	5 (5=80-100%)	4 (4=60-79%)	5 (5=80-100%)	5 (5=80-100%)	5 (5=80-100%)	5 (5=80-100%)	5 (5=80-100%)	5 (5=80-100%)	5 (5=80-100%)	5 (5=80-100%)	–	–	–	–	–	–	–	–	–	–
CCN(C=Nc1c(S(C)(=O)=O)ccc(C(=O)Nc2nnc(C)o2)c1C)CC [Compound 2.031]	5 (5=80-100%)	4 (4=60-79%)	5 (5=80-100%)	5 (5=80-100%)	5 (5=80-100%)	5 (5=80-100%)	4 (4=60-79%)	5 (5=80-100%)	4 (4=60-79%)	5 (5=80-100%)	–	–	–	–	–	–	–	–	–	–
Cc1nnc(NC(=O)c2ccc(C(F)(F)F)c(/N=C/N(C)C)c2Cl)o1 [Compound 2.049, 2-chloro-3-[(E)-dimethylaminomethyleneamino]-N-(5-methyl-1,3,4-oxadiazol-2-yl)-4-(trifluoromethyl)benzamide]	5 (5=80-100%)	5 (5=80-100%)	5 (5=80-100%)	5 (5=80-100%)	5 (5=80-100%)	5 (5=80-100%)	5 (5=80-100%)	5 (5=80-100%)	5 (5=80-100%)	5 (5=80-100%)	–	–	–	–	–	–	–	–	–	–
CCN(C=Nc1c(C(F)(F)F)ccc(C(=O)Nc2nnc(C)o2)c1Cl)CC [Compound 2.055]	5 (5=80-100%)	5 (5=80-100%)	5 (5=80-100%)	5 (5=80-100%)	5 (5=80-100%)	5 (5=80-100%)	5 (5=80-100%)	4 (4=60-79%)	4 (4=60-79%)	5 (5=80-100%)	–	–	–	–	–	–	–	–	–	–
